Source: patent publication US8057810B2, “Peptide substance revealing an immunogeroprotective effect, pharmaceutical composition on its base and the method of its application” (priority 2006, dated 2011)
Residues, ends and D or L forms follow the SMILES beside them.

Tested on: male guinea pigs
Settings: guinea pig, in vivo
Protocol: Common toxicity of H-Glu-Asp-Pro-OH was studied according to the requirements stated in the “Manual for experimental (pre-clinical) study of new pharmacological substances” (2005): acute toxicity in case of single administration of the substance and sub-acute and chronic toxicity in case of long-term administration of the peptide.
The study of acute toxicity was performed on 60 white mongrel male mice with body weight of 18-21 g. The animals were randomly subdivided into 6 equal groups. The substance was administered to the animals once, intramuscularly, in the doses of 1 mg/kg, 2 mg/kg, 3 mg/kg, 4 mg/kg, 5 mg/kg in 0.25 ml of sterile 0.9% NaCl solution. The control animals received 0.9% NaCl solution in the same volume. The study of subacute toxicity was performed on 50 white mongrel male rats with body weight of 170-210 g. Experimental animals received the substance daily, intramuscularly for 90 days in the doses of 1 μg/kg, 0.1 mg/kg, 1 mg/kg in 0.5 ml of sterile 0.9% NaCl solution. […] Upon completion of the experiment biochemical and coagulologic indices of the blood were also evaluated. […] Traditional methods were used for the evaluation of the following indices of the animals' peripheric blood: the quantity of erythrocytes, hemoglobin, reticulocytes, thrombocytes, leukocytes, leukocyte formula, erythrocyte sedimentation rate (ESR), erythrocyte resistance. […]

N[C@@H](CCC(=O)O)C(=O)N[C@@H](CC(=O)O)C(=O)N1CCC[C@H]1C(=O)O [Peptide H-Glu-Asp-Pro-OH, glutamyl-aspartyl-proline] (H-Glu-Asp-Pro-OH)
Changes in blood morphology, biochemical indices, ESR, erythrocyte resistance: no statistically significant changes
